Drawing on patent publication US8748466B2, “Isoxazole derivatives useful as antibacterial agents” (Pfizer Inc., priority 2011, dated 2014), this text covers IC50 and MIC for 19 compounds.

Assay [1] deals with T1, Pseudomonas aeruginosa LpxC enzyme (Pseudomonas aeruginosa, UniProt P47205).
T1 construct: made in house; host or cells: E. coli
T1 sequence (P47205 1-303): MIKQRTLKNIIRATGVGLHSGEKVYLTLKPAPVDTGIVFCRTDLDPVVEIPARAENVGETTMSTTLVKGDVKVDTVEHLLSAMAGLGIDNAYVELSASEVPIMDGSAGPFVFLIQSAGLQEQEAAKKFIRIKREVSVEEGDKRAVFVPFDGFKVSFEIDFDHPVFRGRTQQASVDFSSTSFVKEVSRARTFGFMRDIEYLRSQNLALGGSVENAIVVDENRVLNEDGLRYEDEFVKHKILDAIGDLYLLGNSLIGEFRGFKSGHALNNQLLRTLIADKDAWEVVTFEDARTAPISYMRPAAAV
In words: LpxC enzyme IC50 assay (PA LpxC enzyme IC50), BioTrove RapidFire mass spectrometry. It counts as biochemical. As to the method:
In order to assess the compounds biological activity selected in vitro assays were conducted on selected compounds. One of the assays measured the compounds ability to disrupt the synthesis of lipopolysaccharide, LPS, which is a component of the outer membrane of Gram-negative bacteria. Disruption of this synthesis is lethal to the bacteria. The assay determined the compound's ability to inhibit LpxC, which is the first enzyme in the biosynthetic pathway for LPS (measured as IC50). Additionally, MICs (minimal inhibitory concentrations) were determined for several bacteria. The specific protocols are described below:
A) IC50 Assay LpxC Enzyme from P. aeruginosa Labeled as PA LpxC Enzyme IC50):
At the end of 1 hour, 5 ul of 1 N HCl was added to stop the enzyme reaction, the plates were centrifuged, and then processed with the BioTrove Rapidfire HTMS Mass Spectrometry System. A no-enzyme control was used in calculating the IC50 values from the percent conversion values.

Assay [2] relates to Escherichia coli EC-1: VOGEL, mouse virulent. As to the kind of experiment: MIC determination (CLSI), EC-1. It counts as cell-based. The conditions noted are these: read-out: EC-1 MIC. As to the method: (§1) The in vitro antibacterial activity of compounds described in the Examples was evaluated by minimum inhibitory concentration (MIC) testing according to Clinical and Laboratory Standards Institute (CLSI). See: Clinical and Laboratory Standards Institute. Methods for Dilution Antimicrobial Susceptibility Tests for Bacteria that Grow Aerobically; Approved Standard-Eighth Edition. CLSI document M7-A8 [ISBN 1-56238-689-1]. Clinical and Laboratory Standards Institute, 940 West Valley Road, Suite 1400, Wayne, Pa. 19087-1898 USA, 2006; also Clinical and Laboratory Standards Institute. Performance Standards for Antimicrobial Susceptibility Testing; Twentieth Informational Supplement. CLSI document M100-S20 [ISBN1-56238-716-2]. Clinical and Laboratory Standards Institute.
(§2) The MIC determination is a standard laboratory method for evaluating the antibacterial activity of a compound. The MIC represents the lowest drug concentration that inhibits visible growth of bacteria following overnight incubation. […] Typically, the drug concentration range is broken down into 2-fold increments (e.g., 0.06 μg/mL, 0.12 μg/mL. 0.25 μg/mL, 0.50 μg/mL, 1.0 μg/mL, etc.) and the various drug concentrations are all individually incubated overnight with approximately the same number of bacteria. The MIC is then determined by visually inspecting the drug effect at each concentration, and identifying the lowest drug concentration that has inhibited bacterial growth as compared to the drug free control. Typically, bacteria continue to grow at drug concentrations lower than the MIC and don't grow at concentrations at and above the MIC.
(§3) The MIC values described in Tables 4 and 5 below were derived from assays wherein each test compound was evaluated in duplicate. In cases where the duplicate values varied by 0-2-fold, the lower of the two values was reported below. Generally speaking, if the duplicate values varied by more than 2-fold, the assay was considered non-valid and was repeated until the variation between duplicate runs was 2-fold. In line with the CLSI guidelines referred to above, both control organisms and reference compounds were utilized in each MIC assay to provide proper quality control. MIC values generated with these control organisms and reference compounds were required to fall within a defined range for the assay to be considered valid and be included herein. Those skilled in the art will recognize that MIC values can and do vary from experiment to experiment. Generally speaking, it should be recognized that MIC values often vary +/−2-fold from experiment to experiment. While a single MIC is reported for each compound and each microorganism, the reader should not conclude that each compound was only tested once. Several of the compounds were subjected to multiple tests. The data reported in Tables 4 and 5 is reflective of the compound's relative activity and different MICs may have been generated on these occasions in line with the guidelines described above.
(§4) The following bacterial strains were used in these MIC determinations:
2) Escherichia coli EC-1: VOGEL, mouse virulent labeled as EC-1 in Tables 4 and 5;

For assay [3], the system named is Pseudomonas aeruginosa UC12120 (mouse virulent). In words: MIC determination (CLSI), PA-UC12120. It is filed as cell-based. Conditions: UC12120, read-out: PA-UC12120 MIC. As to the method: as §1, §2, §3, §4
1) Pseudomonas aeruginosa UC12120 (mouse virulent) labeled as PA-UC12120 in Tables 4 and 5;

The test system of assay [4] is Acinetobacter baumannii/haemolyticus: Multidrug-resistant clinical isolate AB-3167. In words: MIC determination (CLSI), AB-3167. It counts as cell-based. Conditions: overnight incubation, duplicate, lower of the two values reported. As to the method:
as §1, §2, §3, §4
3) Acinetobacter baumannii/haemolyticus: Multidrug-resistant clinical isolate labeled as AB-3167 in Tables 4 and 5;

The mark [5] stands for this setting: P. aeruginosa LpxC enzyme 0.1 nM, 25° C., 1 hour, pH 8.0, read-out: PA:IC50.

SMILES strings stand for the structures. Values after ≈ are worked out from the molar mass of the structure shown. Where two headings read alike, the source gives them in different places. Some results are limits rather than exact numbers.

For the compound `CC(CCc1cc(-c2cccc(F)c2)on1)(C(=O)NO)S(C)(=O)=O` (racemic) [Example 21, 4-[5-(3-fluorophenyl)isoxazol-3-yl]-N-hydroxy-2-methyl-2-(methylsulfonyl)butanamide], 6.8 nM corresponded to half-maximal inhibition in assay [1] (IC50). The MIC (as a rule, the smallest concentration in the dilution series that meets the test's criterion for growth inhibition) in assay [2] was 32 µg/mL (≈ 89.8 µM); in assay [3], 4 µg/mL (≈ 11.2 µM); in assay [4] it was above 64 µg/mL.

For `CC(CCc1cc(-c2ccc(F)c(F)c2)no1)(C(=O)NO)S(C)(=O)=O` (racemic) [Example 41, 4-[3-(3,4-difluorophenyl)isoxazol-5-yl]-N-hydroxy-2-methyl-2-(methylsulfonyl)butanamide], the IC50 (in general, the concentration that gives 50% inhibition) in assay [1] (setting [5]) came to 6.8 nM. The MIC was 16 µg/mL (≈ 42.7 µM) in assay [2], 2 µg/mL (≈ 5.34 µM) in assay [3] and above 64 µg/mL in assay [4].

With `CCc1ccc(-c2cc(CCC(C)(C(=O)NO)S(C)(=O)=O)on2)s1` (racemic) [Example 7, 4-[3-(5-ethyl-2-thienyl)isoxazol-5-yl]-N-hydroxy-2-methyl-2-(methylsulfonyl)butanamide], the IC50 in assay [1] (setting [5]) was 1.1 nM. Moreover, the MIC in assay [2] worked out at 4 µg/mL (≈ 10.7 µM); in assay [3], 0.5 µg/mL (≈ 1.34 µM); in assay [4] it was 64 µg/mL (≈ 172 µM).

As for `Cc1cc(-c2cc(CCC(C)(C(=O)NO)S(C)(=O)=O)no2)ccc1OC(F)F` (racemic) [Example 22, 4-{5-[4-(difluoromethoxy)-3-methylphenyl]isoxazol-3-yl}-N-hydroxy-2-methyl-2-(methylsulfonyl)butanamide], the IC50 in assay [1] (setting [5]) came to 1.5 nM. For the same compound, the minimum inhibitory concentration (MIC) in assay [2] is 8 µg/mL (≈ 19.1 µM); in assay [3], 1 µg/mL (≈ 2.39 µM); in assay [4], above 64 µg/mL.

Take `CC(CCc1cc(-c2cnc3ccccc3c2)no1)(C(=O)NO)S(C)(=O)=O` (racemic) [Example 40, N-hydroxy-2-methyl-2-(methylsulfonyl)-4-(3-quinolin-3-ylisoxazol-5-yl)butanamide]: the IC50 in assay [1] (setting [5]) worked out at 25.2 nM.

With `COc1cccc(-c2cc(CCC(C)(C(=O)NO)S(C)(=O)=O)no2)c1` (racemic) [Example 29, N-hydroxy-4-[5-(3-methoxyphenyl)isoxazol-3-yl]-2-methyl-2-(methylsulfonyl)butanamide], the MIC was 64 µg/mL (≈ 174 µM) in assay [2], 8 µg/mL (≈ 21.7 µM) in assay [3] and above 64 µg/mL in assay [4].

`COc1ccccc1SCc1cc(CCC(C)(C(=O)NO)S(C)(=O)=O)no1` (racemic) [Example 19, N-hydroxy-4-(5-{[(2-methoxyphenyl)thio]methyl}isoxazol-3-yl)-2-methyl-2-(methylsulfonyl)butanamide]: the MIC in assay [2] is above 64 µg/mL; in assay [3], 64 µg/mL (≈ 154 µM); in assay [4], above 64 µg/mL.

`COc1cccc(-c2cc(CC[C@](C)(C(=O)NO)S(C)(=O)=O)no2)c1F` [Example 2, (2R)-4-[5-(2-Fluoro-3-methoxyphenyl)isoxazol-3-yl]-N-hydroxy-2-methyl-2-(methylsulfonyl)butanamide]: the MIC stood at 16 µg/mL (≈ 41.4 µM) in assay [2], 16 µg/mL (≈ 41.4 µM) in assay [3] and 32 µg/mL (≈ 82.8 µM) in assay [4].

With `CC(CCc1cc(-c2ccc(F)cc2F)on1)(C(=O)NO)S(C)(=O)=O` (racemic) [Example 28, 4-[5-(2,4-difluorophenyl)isoxazol-3-yl]-N-hydroxy-2-methyl-2-(methylsulfonyl)butanamide], in assay [1] (setting [5]), the IC50 was found to be 2.8 nM.

Turning to `CC(CCc1cc(COc2ccc3c(c2)OCO3)on1)(C(=O)NO)S(C)(=O)=O` (racemic) [Example 26, 4-{5-[(1,3-benzodioxol-5-yloxy)methyl]isoxazol-3-yl}-N-hydroxy-2-methyl-2-(methylsulfonyl)butanamide], the MIC in assay [2] is 16 µg/mL (≈ 38.8 µM); in assay [3] it was 4 µg/mL (≈ 9.7 µM); in assay [4], above 64 µg/mL.

As to `COc1ccc(-c2cc(CC[C@](C)(C(=O)NO)S(C)(=O)=O)no2)c(F)c1` [Example 5, (2R)-4-[5-(2-fluoro-4-methoxyphenyl)isoxazol-3-yl]-N-hydroxy-2-methyl-2-(methylsulfonyl)butanamide], the MIC in assay [2] is 4 µg/mL (≈ 10.4 µM); in assay [3], 0.25 µg/mL (≈ 0.647 µM); in assay [4], above 64 µg/mL.

Consider `Cc1cccc(-c2cc(CCC(C)(C(=O)NO)S(C)(=O)=O)no2)c1` (racemic) [Example 13, N-hydroxy-2-methyl-4-[5-(3-methylphenyl)isoxazol-3-yl]-2-(methylsulfonyl)butanamide], for which the MIC in assay [2] worked out at 32 µg/mL (≈ 90.8 µM); in assay [3] it was 1 µg/mL (≈ 2.84 µM); in assay [4], 64 µg/mL (≈ 182 µM).

Take `CC(CCc1cc(C(=O)NC2CCCCC2)no1)(C(=O)NO)S(C)(=O)=O` (racemic) [Example 45, N-cyclohexyl-5-[4-(hydroxyamino)-3-methyl-3-(methylsulfonyl)-4-oxobutyl]isoxazole-3-carboxamide]: the MIC in assay [2], in assay [3] and in assay [4] was above 64 µg/mL each time.

In the case of `CC(CCc1cc(-c2ccc(F)cc2F)no1)(C(=O)NO)S(C)(=O)=O` (racemic) [Example 50, 4-[3-(2,4-difluorophenyl)isoxazol-5-yl]-N-hydroxy-2-methyl-2-(methylsulfonyl)butanamide], the MIC in assay [2] was 16 µg/mL (≈ 42.7 µM); in assay [3], 1 µg/mL (≈ 2.67 µM); in assay [4] it was above 64 µg/mL.

For `CC(CCc1cc(CN(CCOc2ccccc2)C2CC2)on1)(C(=O)NO)S(C)(=O)=O` (racemic) [Example 18, 4-(5-{[cyclopropyl(2-phenoxyethyl)amino]methyl}isoxazol-3-yl)-N-hydroxy-2-methyl-2-(methylsulfonyl)butanamide], the MIC in assay [2], in assay [3] and in assay [4] was above 64 µg/mL each time.

Consider `CC(CCc1cc(-c2ccc(Cl)c(Cl)c2)on1)(C(=O)NO)S(C)(=O)=O` (racemic) [Example 20, 4-[5-(3,4-dichlorophenyl)isoxazol-3-yl]-N-hydroxy-2-methyl-2-(methylsulfonyl)butanamide], for which the MIC in assay [2] was 4 µg/mL (≈ 9.82 µM); in assay [3] it was 1 µg/mL (≈ 2.46 µM); in assay [4], 16 µg/mL (≈ 39.3 µM).

On to `COc1ccc(C(=O)NCc2cc(CCC(C)(C(=O)NO)S(C)(=O)=O)no2)cc1` (racemic) [Example 11, N-({3-[4-(hydroxyamino)-3-methyl-3-(methylsulfonyl)-4-oxobutyl]isoxazol-5-yl}methyl)-4-methoxybenzamide], for which the MIC in assay [2], in assay [3] and in assay [4] was above 64 µg/mL throughout.

For `CC(CCc1cc(CCCCCCCCCO)on1)(C(=O)NO)S(C)(=O)=O` (racemic) [Example 15, N-hydroxy-4-[5-(9-hydroxynonyl)isoxazol-3-yl]-2-methyl-2-(methylsulfonyl)butanamide], the results for the MIC in assay [2], in assay [3] and in assay [4] were 16 µg/mL (≈ 39.6 µM), 4 µg/mL (≈ 9.89 µM) and above 64 µg/mL, respectively.

As to `CC(CCc1cc(-c2ccnc3ccccc23)no1)(C(=O)NO)S(C)(=O)=O` (racemic) [Example 46, N-hydroxy-2-methyl-2-(methylsulfonyl)-4-(3-quinolin-4-ylisoxazol-5-yl)butanamide], the IC50 in assay [1] (setting [5]) amounted to 5.4 nM.
